pIC50: −log10 of the molar value.
Columns and labels:
Wee1-like protein kinase [1] = biological target: T1, Wee1-like protein kinase (Homo sapiens, UniProt P30291); assay: Inhibition of human Wee1 (215 to 647 residues) using polyornithine/tyrosine (4:1) as substrate incubated for 5 mins in presence of ATP by micro beta plate reader analysis
A-427 = assay: Antiproliferative activity against human A-427 cells assessed as inhibition of cell growth incubated for 72 hrs by CCK-8 assay; assay type: functional, cell-based; settings: A-427, 72 h
[2] = Metabolic stability in human liver microsome assessed as parent compound remaining measured at 60 mins by LCMS/MS analysis; assay type: ADME; settings: liver microsomes, read-out: Stability
[3] = Metabolic stability in mouse liver microsome assessed as parent compound remaining measured at 60 mins by LCMS/MS analysis; assay type: ADME; settings: liver microsomes, read-out: Stability
[4] = AUC (0 to 24 hrs) in ICR mouse at 1 mg/kg, iv measured upto 24 hrs by LC-MS/MS analysis; assay type: ADME, organism-based; settings: in vivo
[5] = Half life in ICR mouse at 1 mg/kg, iv measured upto 24 hrs by LC-MS/MS analysis; assay type: ADME, organism-based; settings: in vivo
[6] = Volume of distribution in ICR mouse at 1 mg/kg, iv measured upto 24 hrs by LC-MS/MS analysis; assay type: ADME, organism-based; settings: in vivo
[7] = Clearance in ICR mouse at 1 mg/kg, iv measured upto 24 hrs by LC-MS/MS analysis; assay type: ADME, organism-based; settings: in vivo
[8] = AUC (0 to 24 hrs) in ICR mouse at 60 mg/kg, IG measured upto 24 hrs by LC-MS/MS analysis; assay type: ADME, organism-based; settings: in vivo, po
[9] = Half life in ICR mouse at 60 mg/kg, IG measured upto 24 hrs by LC-MS/MS analysis; assay type: ADME, organism-based; settings: in vivo, po
[10] = Bioavailability in ICR mouse at 60 mg/kg, IG measured upto 24 hrs by LC-MS/MS analysis; assay type: ADME, organism-based; settings: in vivo, po
LoVo [11] = assay: Antiproliferative activity against human LoVo cells assessed as inhibition of cell growth incubated for 72 hrs by CCK-8 method; assay type: functional, cell-based
Wee1-like protein kinase [12] = biological target: T1, Wee1-like protein kinase; assay: Inhibition of Wee1 in human U2OS cells assessed as reduction in CDK1 phosphorylation measured for 1 hr by Western blot analysis; assay type: cell-based
LoVo [13] = assay: Antitumor activity against human LoVo cells xenografted in female BALB/c nude mouse assessed as tumor growth inhibition at 60 mg/kg, IG administered once daily for 27 days; assay type: functional; settings: po, 648 h, time 27 day, read-out: TGI
[14] = Toxicity in female BALB/c nude mouse xenografted with human LoVo cells assessed as body weight loss at 60 mg/kg, IG administered once daily for 27 days; assay type: organism-based; settings: in vivo, po, 648 h, time 27 day
[15] = Acute toxicity in female C57 mouse assessed as body weight loss at 2000 mg/kg, IG measured for 7 days; assay type: organism-based; settings: in vivo, po, 168 h, time 7 day

T1 sequence (P30291 whole entry, the tested form may be a part): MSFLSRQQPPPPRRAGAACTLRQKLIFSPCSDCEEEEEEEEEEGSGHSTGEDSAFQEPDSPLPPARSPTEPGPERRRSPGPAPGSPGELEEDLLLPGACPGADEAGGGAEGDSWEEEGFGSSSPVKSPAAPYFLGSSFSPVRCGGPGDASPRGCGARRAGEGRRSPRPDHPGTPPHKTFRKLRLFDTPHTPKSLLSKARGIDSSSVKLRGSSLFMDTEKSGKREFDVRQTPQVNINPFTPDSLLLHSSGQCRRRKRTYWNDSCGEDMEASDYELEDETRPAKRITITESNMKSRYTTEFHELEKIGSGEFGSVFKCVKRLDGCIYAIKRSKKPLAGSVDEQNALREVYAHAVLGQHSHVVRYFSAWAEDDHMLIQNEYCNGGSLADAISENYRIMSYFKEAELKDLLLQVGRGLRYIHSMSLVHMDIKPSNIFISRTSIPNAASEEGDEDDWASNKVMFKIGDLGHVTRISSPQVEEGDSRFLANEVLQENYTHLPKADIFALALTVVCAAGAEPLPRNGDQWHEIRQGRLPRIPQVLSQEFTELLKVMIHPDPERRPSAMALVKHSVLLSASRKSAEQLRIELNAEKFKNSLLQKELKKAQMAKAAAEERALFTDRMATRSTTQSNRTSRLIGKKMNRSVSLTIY

SMILES | pIC50 (Wee1-like protein kinase [1]) | pIC50 (A-427) | remaining at 1 h [2] | remaining at 1 h [3] | AUC(0-t) at 24 h [4] | half-life [5] | Vd [6] | clearance [7] | AUC(0-t) at 24 h [8] | half-life [9] | bioavailability [10] | pIC50 (LoVo [11]) | pIC50 (Wee1-like protein kinase [12]) | inhibition in vivo at 60 mg/kg (LoVo [13]) | Activity [14] | Activity [15]
C=CCn1c(=O)c2cnc(Nc3ccc(N4CCN(C)CC4)cc3)nc2n1-c1cccc(-c2ncccn2)n1 | 8.66 | 6.40 | 79.8% | 63.9% | 403 ng·h/mL | 1.19 h | 4.24 L/kg | 41.2 mL/min/kg | 14800 ng·h/mL | 1.74 h | 61.1% | 6.25 | 6.33 | – | – | –
C=CCn1c(=O)c2cnc(Nc3ccc(N4CCN(CC)CC4)cc3)nc2n1-c1cccc(-c2cnccn2)n1 | 8.80 | 7.06 | 65.2% | 18% | 151 ng·h/mL | 0.8 h | 7.4 L/kg | 108 mL/min/kg | 4200 ng·h/mL | – | 46.5% | 7.04 | 6.47 | 69% | Toxic | –
C=CCn1c(=O)c2cnc(Nc3ccc(N4CCN(C)CC4)cc3)nc2n1-c1cccc(-c2ncc(C)cn2)n1 | 8.66 | 6.32 | 71.2% | 59.4% | 1160 ng·h/mL | 1.65 h | 1.98 L/kg | 14.2 mL/min/kg | 58100 ng·h/mL | 3.9 h | 83.1% | 6.26 | 6.44 | 72% | – | –
C=CCn1c(=O)c2cnc(Nc3ccc(N4CCC(N5CCN(C)CC5)CC4)cc3)nc2n1-c1cccc(-c2ncccn2)n1 | 8.43 | 6.23 | 88.9% | 97.1% | 980 ng·h/mL | 2.39 h | 3.72 L/kg | 16.8 mL/min/kg | 32400 ng·h/mL | 3.71 h | 55.1% | 6.15 | 6.04 | – | – | –
C=CCn1c(=O)c2cnc(Nc3ccc(N4CCN(C)CC4)cc3)nc2n1-c1cccc(C(C)(C)O)n1 [ADAVOSERTIB] | – | 6.51 | 32.7% | 9.67% | 47.1 ng·h/mL | 0.59 h | 16.1 L/kg | 350 mL/min/kg | 2320 ng·h/mL | 1.67 h | 82.1% | 6.48 | – | 70% | – | Toxic
C=CCn1c(=O)c2cnc(Nc3ccc(C4CCN(C)CC4)cc3)nc2n1-c1cccc(-c2ncccn2)n1 | 8.68 | 6.48 | 67.3% | 79.4% | 236 ng·h/mL | 1.51 h | 9.03 L/kg | 69.5 mL/min/kg | 4280 ng·h/mL | 3.55 h | 30.3% | – | – | – | – | –
C=CCn1c(=O)c2cnc(Nc3ccc(N4[C@@H]5CC[C@H]4CN(C)C5)cc3)nc2n1-c1cccc(-c2ncccn2)n1 | 7.59 | 6.94 | 64.2% | 82.3% | 124 ng·h/mL | 1.38 h | 13.4 L/kg | 128 mL/min/kg | 6810 ng·h/mL | 2.97 h | 91.3% | 6.61 | 6.78 | 53% | – | –
C=CCn1c(=O)c2cnc(Nc3ccc(N4C[C@@H](C)N[C@@H](C)C4)cc3)nc2n1-c1cccc(-c2ncccn2)n1 | 8.62 | 6.47 | 51.3% | 83.9% | 35.5 ng·h/mL | 1.72 h | 60.5 L/kg | 427 mL/min/kg | 1850 ng·h/mL | 5.42 h | 87.1% | – | – | – | – | –
C=CCn1c(=O)c2cnc(Nc3ccc(N4CCC(N5CCN(C)CC5)CC4)cc3)nc2n1-c1cccc(-c2cnccn2)n1 | 8.70 | 6.72 | 76.3% | 78.5% | 699 ng·h/mL | 2.55 h | 5.6 L/kg | 23.8 mL/min/kg | 20300 ng·h/mL | – | 48.5% | 6.78 | 6.40 | 58% | – | –
C=CCn1c(=O)c2cnc(Nc3ccc(N4CCN(C)CC4)cc3)nc2n1-c1ccc2c(n1)[C@@](O)(CC)CC2 [AZENOSERTIB] | – | – | – | – | – | – | – | – | – | – | – | 6.50 | 6.25 | 80% | – | –
C=CCn1c(=O)c2cnc(Nc3ccc(N4CCN(C)CC4)cc3)nc2n1-c1cccc(-c2cccnn2)n1 | 8.70 | 6.69 | 46.5% | 55.1% | 170 ng·h/mL | 2.45 h | 11.7 L/kg | 88.2 mL/min/kg | 4270 ng·h/mL | 8.65 h | 41.9% | – | – | – | – | –

— ChEMBL document CHEMBL5512688 (J Med Chem, 2024)
